# Results from publication PMC4109680, “Identification and Preclinical Pharmacology of the γ-Secretase Modulator BMS-869780” (International Journal of Alzheimer's Disease, 2014).
# Legend:
# mNotch1Δ1865 = test: Western blot of NICD and mNotch1Δ1865 in transfected HeLa cell cultures; format: cell-based
# Procedure: Inhibition of Notch signaling in cultured cells using a mouse-derived truncated Notch1 transgene, mNotch-ΔE [67], has been described in detail previously. Western blots for mNotchΔ1865 and NICD using 9E10 anti-c-myc monoclonal were carried out as previously described.
# The effect of BMS-869780 on Notch processing was evaluated using transcriptional reporter assays and western blotting of NICD levels. HeLa cell cultures were transfected with mNotch1ΔE and CBF1-luciferase reporter constructs and treated with BMS-869780. In most replicates of this experiment, inhibition of luciferase reporter occurred with IC50 > 10 μM. […] To further evaluate the effect of BMS-869780 on Notch processing, western blots of cell cultures were carried out using mNotch1Δ1865, a truncated version of mNotch1ΔE that facilitates separation of NICD product from mNotch1 substrate on western blots. HeLa cell cultures were transfected with mNotch1Δ1865 and treated overnight with compounds before western blotting. […] Furthermore, the GSIs caused an increased level of mNotch1Δ1865 substrate, most likely due to inhibition of its turnover by γ-secretase, as previously noted by Blat et al..
# (b) HeLa cell cultures were transfected with mNotchΔ1865, treated with compounds overnight, and cell extracts were evaluated by western blot using anti-c-myc-HRP conjugate. Lanes 1 and 9: DMSO (0.1%) vehicle. Lane 2: BMS-299897 at 1 μM. Lane 3: BMS-433796 at 0.3 μM. Lanes 4–8: BMS-869780 at 0.1, 0.3, 1, 3, and 10 μM, respectively.
# APP-CTF (H4-APPsw) = test: Western blot of APP-CTFα and APP-CTFβ in H4-APPsw cell lysates; format: cell-based, human; conditions: overnight; for increase in APP-CTFα: BMS-869780 100-3000 nM averaged across doses, BMS-299897 30-300 nM; for APP-CTFβ levels: high concentrations
# Procedure: For western blotting of APP-CTF in cell lysates, H4-APPsw cell cultures in T-75 flasks were rinsed with DPBS, harvested, isolated by centrifugation, and stored at −80°C until needed. Cells were suspended in SDS sample buffer (20,000 cells/μL), boiled for 10 min, and centrifuged 3000 ×g for 5 min. Total protein content was determined using an assay kit (EZQ, Invitrogen cat number R33200). Proteins were separated by electrophoresis on Bis-Tris 16% polyacrylamide gels and transferred to nitrocellulose filters. APP-CTFβ was detected using 26D6-HRP, and APP-CTFα was detected using ct695 polyclonal (Invitrogen, cat number 51-2700) and secondary goat anti-rabbit horseradish peroxidase conjugate (Zymed, catalog number 62-6120). Chemiluminescence images were captured and quantified using an imaging station (Fuji model number LAS-3000). The ct695 western blots also show APP-CTFβ, which migrates as a fainter band above APP-CTFα under these conditions. To confirm the consistency of sample loading, the APP-CTF western blots were reprobed for glyceraldehyde-3-phosphate dehydrogenase (GAPDH) using monoclonal 1D4 (Enzo Life Sciences, cat number CSA-335).
# Figure 4 BMS-869780 had minimal effect on APP-CTF accumulation in vitro. H4-APPsw cell cultures were treated overnight with the indicated concentrations of BMS-869780, BMS-299897 or vehicle (0.1% DMSO). (a) Cells were harvested and analyzed by western blotting for APP-CTFα, APP-CTFβ, and GAPDH. Lane 1; culture treated with vehicle 0.1% DMSO. Lanes 2–5; cultures treated with BMS-869780 at 100 nM, 300 nM, 1000 nM, or 3000 nM, respectively. Lanes 6–8; cultures treated with BMS-299897 at 30 nM, 100 nM, or 300 nM, respectively. (b) Levels of Aβ1-42 (red; left Y-axis), Aβ1-40 (green; right Y-axis), and Aβ1-x (grey; right Y-axis) were quantified.
# Aβ1-x (H4-APPsw) = test: Aβ1-42, Aβ1-40 and Aβ1-x ELISA in H4-APPsw cultures at high concentrations; format: cell-based, human; conditions: overnight
# Procedure: IC50 determinations for Aβ1-42 and Aβ1-40 in H4-APPsw cultures in 384-well format were determined using homogeneous time-resolved fluorescence immunoassays as previously described. The principle of these assays is illustrated in Figures 1(c) and 1(d). In other experiments using H4-APPsw cultures, Aβ was quantified by ELISA; for Aβ1-42 the combination of monoclonal antibodies was 26D6 and 565-HRP; for Aβ1-40 it was TSD and 26D6-HRP, and for Aβ1-x it was 4G8 and 26D6-HRP. In some experiments a novel 4-plex Aβ electrochemiluminescence immunoassay was used (Mesoscale Discovery catalog number N45ZA-1). […] For Aβ in transiently transfected PS1/PS2 dKO fibroblasts, Aβ1-42 was quantified using an ELISA kit (WACO), and Aβ1-40 was quantified by ELISA as described above for H4-APPsw cultures. […] For the rat and mouse experiments illustrated in Figures 7 and 8, brain samples were prepared by solid phase extraction, and endogenous rat brain Aβ1-42 and Aβ1-40 were quantified by ELISA as previously described for wild type mice. […] For brain extracts made in 0.2% diethylamine, Aβ1-42, Aβ1-40, Aβ1-38, and Aβ1-37 concentrations in brain and cell culture samples were determined by fitting the results of immunoassays against calibration curves derived from a range of dilutions of the corresponding synthetic peptides on each assay plate using a quadratic curve fit (Graphpad Prizm 5.0). […]
SMILES,mNotch1Δ1865 substrate levels (mNotch1Δ1865; 10 μM),"cell observation (mNotch1Δ1865; 10 μM, HeLa cultures)",NICD levels (mNotch1Δ1865; concentrations up to 3 μM),increase in APP-CTFα (APP-CTF (H4-APPsw)) [fold],APP-CTFβ levels (APP-CTF (H4-APPsw)),overall levels of Aβ1-x (Aβ1-x (H4-APPsw)),"NICD levels (mNotch1Δ1865; BMS-299897 at 1 μM, BMS-433796 at 0.3 μM)"
COc1cc(Nc2nc3n(n2)CCCC[C@H]3c2ccc(F)cc2)ccc1-n1cnc(Cl)c1 [BMS-869780],did not increase mNotch1Δ1865 levels,detached and dead cells,no effect on NICD levels,1.4,not affected,without any decrease in the overall levels of Aβ1-x,
"C[C@H](c1ccc(F)cc1CCCC(=O)O)N(c1cc(F)ccc1F)S(=O)(=O)c1ccc(Cl)cc1 [BMS-299897, reference compound]",,,,8,not affected,dramatically reduced all Aβ1-x peptides,greatly reduced NICD
